pEC50, pIC50: −log10 of the molar value.
Tests used:
[1] = target: T1, human PTGR2 (Homo sapiens (Human), UniProt Q8N8N7); assay: Cell-based GAL4-PPAR luciferase reporter assay in HEK293T cells transfected with human PTGR2; details: UASG reporter, GAL4-PPAR and human PTGR2-Tag vectors, luciferase normalized to TK-Rluc
Experimental: HEK293T cells were seeded at 1×10^5 cells/well in a 24-well plate. […] Cells were treated and harvested in two batches, one after 24 hours and another after 48 hours. The luciferase activity was measured by a Luc-Pair™ Duo-Luciferase HS Assay Kit (commercially available from Promega Corporation) and normalized to the TK-Rluc reporter signal, which was recorded and used to calculate the EC50 value of a PTGR2 inhibitor.

[2] = target: T1, human PTGR2; assay: In vitro PTGR2 enzyme activity assay (NADPH decrease, Glo-NADPH luminescence); type: biochemical; details: 15-keto-PGE2 20 μM, NADPH 20 μM, pH 7.3
Experimental: In vitro enzyme activity was measured to determine the half maximal inhibitory concentration (IC50) of compounds of this invention as PTGR2 inhibitors. The reduction of 15-keto-PGE2 by PTGR2 requires NADPH. The decrease of NADPH during the reduction reaction indicates […] of PTGR2 and thus is used to calculate the IC50 of a PTGR2 inhibitor. […] The resultant mixture was pre-incubated at room temperature for 15 minutes. After the incubation, 15-keto-PGE2 was added to a final concentration of 20 μM, together with NADPH (20 μM, final concentration) and a Glo-NADPH reagent (commercially available from Promega Corporation, Madison, Wis.).

T1 sequence (Q8N8N7 whole entry, the tested form may be a part): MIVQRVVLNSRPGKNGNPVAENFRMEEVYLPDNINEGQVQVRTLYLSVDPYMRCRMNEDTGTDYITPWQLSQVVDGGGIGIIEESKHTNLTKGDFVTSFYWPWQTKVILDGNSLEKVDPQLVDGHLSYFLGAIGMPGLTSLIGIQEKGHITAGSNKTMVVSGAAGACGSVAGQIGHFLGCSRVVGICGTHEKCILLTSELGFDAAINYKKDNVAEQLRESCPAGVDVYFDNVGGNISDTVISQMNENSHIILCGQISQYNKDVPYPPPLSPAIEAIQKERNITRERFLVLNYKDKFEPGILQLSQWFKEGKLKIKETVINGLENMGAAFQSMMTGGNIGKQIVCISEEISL

Structure (SMILES)	pEC50 [1]	pIC50 [2]
COc1ccccc1N1CCN(Cc2nc3[nH]c(C)c(Cc4ccc(Cl)cc4)c(=O)n3n2)CC1 [Compound 1, 6-(4-chlorobenzyl)-2-((4-(2-methoxyphenyl)piperazin-1-yl)methyl)-5-methyl-[1,2,4]triazolo[1,5-a]pyrimidin-7(4H)-one]	6.06	9.70
CC(C)c1cc(=O)[nH]c(SCC(=O)N2CCN(c3nccs3)[C@@H](C)C2)n1 [Compound 2, (S)-6-isopropyl-2-((2-(3-methyl-4-(thiazol-2-yl)piperazin-1-yl)-2-oxoethyl)thio)pyrimidin-4(3H)-one]	6.95	7.37
COc1ccc(Cc2c(C)[nH]c3nc(C(C)N4CCN(c5ccccc5)CC4)nn3c2=O)c(F)c1 (centres unmarked) [Compound 5, 6-(2-fluoro-4-methoxybenzyl)-5-methyl-2-(1-(4-phenylpiperazin-1-yl)ethyl)-[1,2,4]triazolo[1,5-a]pyrimidin-7(4H)-one]	7.39	7.90
Cc1[nH]c2nc(CN3CCN(c4ccccc4)CC3)nn2c(=O)c1Cc1cccc(Cl)c1F [Compound 6, 6-(3-chloro-2-fluorobenzyl)-5-methyl-2-((4-phenylpiperazin-1-yl)methyl)-[1,2,4]triazolo[1,5-a]pyrimidin-7(3H)-one]	6.52	10.70
Cc1[nH]c2nc(C(C)N3CCN(c4ccccc4)CC3)nn2c(=O)c1Cc1cc(F)c(F)cc1F (centres unmarked) [Compound 7, 5-methyl-2-(1-(4-phenylpiperazin-1-yl)ethyl)-6-(2,4,5-trifluorobenzyl)-[1,2,4]triazolo[1,5-a]pyrimidin-7(4H)-one]	8.15	8.39
Cc1[nH]c2nc(C(C)N3CCN(c4ccccc4)CC3)nn2c(=O)c1Cc1cccc(F)c1 (centres unmarked) [Compound 10, 6-(3-fluorobenzyl)-5-methyl-2-(1-(4-phenylpiperazin-1-yl)ethyl)-[1,2,4]triazolo[1,5-a]pyrimidin-7(4H)-one]	7.11	8.10
Cc1[nH]c2nc(C(C)N3CCN(c4ccccc4)CC3)nn2c(=O)c1Cc1cccc(Cl)c1 (centres unmarked) [Compound 11, 6-(3-chlorobenzyl)-5-methyl-2-(1-(4-phenylpiperazin-1-yl)ethyl)-[1,2,4]triazolo[1,5-a]pyrimidin-7(3H)-one]	7.21	7.27
Cc1[nH]c2nc(CN3CCN(c4ccccc4)CC3)nn2c(=O)c1Cc1cccc(Cl)c1 [Compound 12, 6-(3-chlorobenzyl)-5-methyl-2-((4-phenylpiperazin-1-yl)methyl)-[1,2,4]triazolo[1,5-a]pyrimidin-7(3H)-one]	6.63	11.00
Cc1[nH]c2nc(C(C)N3CCN(c4ccccc4)CC3)nn2c(=O)c1Cc1cccc(C(F)(F)F)c1 (centres unmarked) [Compound 13, 5-methyl-2-(1-(4-phenylpiperazin-1-yl)ethyl)-6-(3-(trifluoromethyl)benzyl)-[1,2,4]triazolo[1,5-a]pyrimidin-7(4H)-one]	7.72	7.21
COc1ccc(Cc2c(C)[nH]c3nc(C(C)N4CCN(c5ccccc5)CC4)nn3c2=O)cc1F (centres unmarked) [Compound 15, 6-(3-fluoro-4-methoxybenzyl)-5-methyl-2-(1-(4-phenylpiperazin-1-yl)ethyl)-[1,2,4]triazolo[1,5-a]pyrimidin-7(4H)-one]	7.19	7.47
Cc1ccc(Cc2c(C)[nH]c3nc(C(C)N4CCN(c5ccccc5)CC4)nn3c2=O)cc1 (centres unmarked) [Compound 17, 5-methyl-6-(4-methylbenzyl)-2-(1-(4-phenylpiperazin-1-yl)ethyl)-[1,2,4]triazolo[1,5-a] pyrimidin-7(4H)-one]	6.98	7.92
COc1ccc(Cc2c(C)[nH]c3nc(C(C)N4CCN(c5ccccc5)CC4)nn3c2=O)cc1 (centres unmarked) [Compound 18, 6-(4-methoxybenzyl)-5-methyl-2-(1-(4-phenylpiperazin-1-yl)ethyl)-[1,2,4]triazolo[1,5-a] pyrimidin-7(4H)-one]	6.55	8.77
Cc1[nH]c2nc(C(C)N3CCN(c4ccccc4)CC3)nn2c(=O)c1Cc1ccc(F)cc1 (centres unmarked) [Compound 19, 6-(4-fluorobenzyl)-5-methyl-2-(1-(4-phenylpiperazin-1-yl)ethyl)-[1,2,4]triazolo[1,5-a]pyrimidin-7(4H)-one]	7.24	8.05
Cc1[nH]c2nc(C(C)N3CCN(c4ccccc4)CC3)nn2c(=O)c1Cc1ccc(Cl)cc1 (centres unmarked) [Compound 20, 6-(4-chlorobenzyl)-5-methyl-2-(1-(4-phenylpiperazin-1-yl)ethyl)-[1,2,4]triazolo[1,5-a]pyrimidin-7(4H)-one]	6.79	7.76
Cc1[nH]c2nc(CN3CCN(c4nccs4)CC3)nn2c(=O)c1Cc1cccc(Cl)c1 [Compound 26, 6-(3-chlorobenzyl)-5-methyl-2-((4-(thiazol-2-yl)piperazin-1-yl)methyl)-[1,2,4]triazolo[1,5-a] pyrimidin-7(3H)-one]	6.28	7.63
CCCc1cc(=O)[nH]c(SCC(=O)N2CCN(c3ccccc3OC)[C@@H](C)C2)n1 [Compound 28, (S)-2-((2-(4-(2-methoxyphenyl)-3-methylpiperazin-1-yl)-2-oxoethyl)thio)-6-propylpyrimidin-4(3H)-one]	6.97	7.07
COc1ccccc1N1CCN(Cc2nc3[nH]c(C)c(Cc4cccc(Cl)c4)c(=O)n3n2)CC1 [Compound 32, 6-(3-chlorobenzyl)-2-((4-(2-methoxyphenyl)piperazin-1-yl)methyl)-5-methyl-[1,2,4]triazolo[1,5-a]pyrimidin-7(3H)-one]	6.76	9.30
Cc1[nH]c2nc(C=C3CCN(c4ccccc4)CC3)nn2c(=O)c1Cc1cccc(Cl)c1 [Compound 34, 6-(3-chlorobenzyl)-5-methyl-2-((1-phenylpiperidin-4-ylidene)methyl)-[1,2,4]triazolo[1,5-a] pyrimidin-7(4H)-one]	6.37	7.22
CCCc1cc(=O)[nH]c(SCC(=O)N2CCN(c3nccs3)CC2)n1 [Compound 46, 2-((2-oxo-2-(4-(thiazol-2-yl)piperazin-1-yl)ethyl)thio)-6-propylpyrimidin-4(3H)-one]	6.92	7.06
COc1ccccc1N1CCN(C(=O)CSc2nc(C(C)C)cc(=O)[nH]2)C[C@H]1C [Compound 53, (R)-6-isopropyl-2-((2-(4-(2-methoxyphenyl)-3-methylpiperazin-1-yl)-2-oxoethyl)thio)pyrimidin-4(3H)-one]	6.68	7.28
Cc1[nH]c2nc(C(C)N3CCN(c4ccccc4)[C@H](C)C3)nn2c(=O)c1Cc1ccc(F)cc1 (stereo partly drawn) [Compound 54, 6-(4-fluorobenzyl)-5-methyl-2-(1-((R)-3-methyl-4-phenylpiperazin-1-yl)ethyl)-[1,2,4]triazolo [1,5-a]pyrimidin-7(4H)-one]	6.61	7.50
CCOc1ccccc1N1CCN(C(=O)CSc2nc(C(C)C)cc(=O)[nH]2)CC1 [Compound 63, 2-((2-(4-(2-ethoxyphenyl)piperazin-1-yl)-2-oxoethyl)thio)-6-isopropylpyrimidin-4(3H)-one]	6.78	7.09

Reference: patent publication US20230279008A1, “PTGR2 INHIBITORS AND THEIR USE” (National Health Research Institutes, priority 2022, published 2023)
